Our source for the T/C values is PubChem BioAssay AID330 (DTP/NCI, 2004).

This experiment deals with P388 leukemia ip, CD2F1 mice, survival T/C. Briefly: NCI In Vivo Anticancer Drug Screen. Data for tumor model P388 Leukemia (intraperitoneal) in CD2F1 (CDF1) mice. The settings on record: endpoint: median survival time, higher = longer survival. In outline:
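Mice carrying the transplanted tumor received test compound or vehicle. Survival was recorded in each group, and the value is the treated-group measurement divided by that of the vehicle-treated control group.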

Where [1] appears, read: dose: 100.0 mg/kg/injection, schedule: Q01DX009 (ip), vehicle: saline with Tween-80.
The mark [2] stands for this setting: dose: 200.0 mg/kg/injection, schedule: Q01DX009 (ip), vehicle: saline with Tween-80.
Where [3] appears, read: dose: 50.0 mg/kg/injection, schedule: Q01DX009 (ip), vehicle: Klucel (hydroxypropylcellulose) (HPC).
Where [4] appears, read: dose: 50.0 mg/kg/injection, schedule: Q01DX009 (ip), vehicle: saline with Tween-80.
Setting [5] is: dose: 6.25 mg/kg/injection, schedule: Q01DX009 (ip), vehicle: distilled water + Tween-80.
[6] abbreviates: dose: 12.5 mg/kg/injection, schedule: Q01DX009 (ip), vehicle: distilled water + Tween-80.
[7] abbreviates: dose: 25.0 mg/kg/injection, schedule: Q01DX009 (ip), vehicle: distilled water + Tween-80.
The mark [8] stands for this setting: dose: 50.0 mg/kg/injection, schedule: Q01DX009 (ip), vehicle: distilled water + Tween-80.
Where [9] appears, read: dose: 100.0 mg/kg/injection, schedule: Q01DX009 (ip), vehicle: distilled water + Tween-80.
[10] abbreviates: dose: 25.0 mg/kg/injection, schedule: Q01DX009 (ip), vehicle: saline.
The mark [11] stands for this setting: dose: 50.0 mg/kg/injection, schedule: Q01DX009 (ip), vehicle: saline.
Setting [12] is: dose: 100.0 mg/kg/injection, schedule: Q01DX009 (ip), vehicle: saline.

Where “and” joins values, the source holds several entries; their conditions need not be identical. Equal values may be shown once. Toxic doses and inconclusive results are not listed. Square brackets hold non-standard residues; d marks the D form. Peptide text beside a SMILES is read from it. * marks the point of attachment. Cbz = O=C(OCc1ccccc1)*; Dha = C=C(N)C(=O)O

Turning to `N[C@@H](CSSc1ccccc1C(=O)O)C(=O)O`, the T/C was 103 % of control (dose: 100.0 mg/kg/injection, schedule: Q04DX002 (ip), vehicle: Klucel (hydroxypropylcellulose) (HPC)); 107 % of control (dose: 200.0 mg/kg/injection, schedule: Q04DX002 (ip), vehicle: Klucel (hydroxypropylcellulose) (HPC)); 105 % of control (dose: 400.0 mg/kg/injection, schedule: Q04DX002 (ip), vehicle: Klucel (hydroxypropylcellulose) (HPC)).
In the case of `O=c1cccc(Cl)[nH]1`, the T/C under setting [1] is 100 % of control; the T/C under setting [2] is 95 % of control; the T/C (dose: 400.0 mg/kg/injection, schedule: Q01DX009 (ip), vehicle: saline with Tween-80) was 100 % of control.
In the case of `Cc1c(CCl)cc([N+](=O)[O-])cc1CCl`, the T/C by setting is: (dose: 6.25 mg/kg/injection, schedule: Q01DX009 (ip), vehicle: Klucel (hydroxypropylcellulose) (HPC)) 99 % of control; (dose: 12.5 mg/kg/injection, schedule: Q01DX009 (ip), vehicle: Klucel (hydroxypropylcellulose) (HPC)) 112 % of control and 114 % of control (2×); (dose: 25.0 mg/kg/injection, schedule: Q01DX009 (ip), vehicle: Klucel (hydroxypropylcellulose) (HPC)) 116 % of control and 117 % of control and 120 % of control; under setting [3], 114 % of control and 117 % of control.
Turning to `CC1(C)CC(COC(=O)c2c3ccccc3c3ccc4cccc5ccc2c3c54)CC(C)(C)N1O`, the T/C is 98 % of control under setting [4], 106 % of control under setting [1] and 91 % of control under setting [2].
Take `CC1CCN(C)CC1`: the T/C reads like this: (dose: 25.0 mg/kg/injection, schedule: Q01DX005 (ip), vehicle: saline) 104 % of control; (dose: 50.0 mg/kg/injection, schedule: Q01DX005 (ip), vehicle: saline) 97 % of control; (dose: 100.0 mg/kg/injection, schedule: Q01DX005 (ip), vehicle: saline) 105 % of control.
For the compound `O=C(OCC(Cl)(Cl)Cl)N1[C@@H]2C=C[C@@H](N1C(=O)OCC(Cl)(Cl)Cl)[C@@]13CCCCC21O3` (stereo partly drawn), the T/C is 102 % of control (dose: 50.0 mg/kg/injection, schedule: Q01DX005 (ip), vehicle: Klucel (hydroxypropylcellulose) (HPC)); 108 % of control (dose: 100.0 mg/kg/injection, schedule: Q01DX005 (ip), vehicle: Klucel (hydroxypropylcellulose) (HPC)); 103 % of control (dose: 200.0 mg/kg/injection, schedule: Q01DX005 (ip), vehicle: Klucel (hydroxypropylcellulose) (HPC)).
Take `CC(=O)OCC1OC(n2cc(CI)nn2)C(OC(C)=O)C(OC(C)=O)C1OC(C)=O` (stereo not drawn): the T/C reads like this: under setting [5], 102 % of control and 103 % of control; under setting [6], 103 % of control and 96 % of control; under setting [7], 111 % of control and 115 % of control; under setting [8], 102 % of control and 115 % of control; under setting [9], 115 % of control.
Consider `COc1ccc(CCn2cnn3c(=O)c4ccccc4nc3c2=O)cc1OC`, for which the T/C reads like this: (dose: 60.0 mg/kg/injection, schedule: Q01DX005 (ip), vehicle: saline with Tween-80) 99 % of control; (dose: 120.0 mg/kg/injection, schedule: Q01DX005 (ip), vehicle: saline with Tween-80) 92 % of control.
Consider `N#Cc1cn(C2OC(CO)C(O)C2O)c2ncnc(N)c12` (stereo not drawn), for which the T/C is, setting by setting: (dose: 0.05 mg/kg/injection, schedule: Q01DX009 (ip), vehicle: other) 124 % of control; (dose: 0.1 mg/kg/injection, schedule: Q01DX009 (ip), vehicle: other) 155 % of control; (dose: 0.13 mg/kg/injection, schedule: Q04DX003 (ip), vehicle: other) 154 % of control; (dose: 0.15 mg/kg/injection, schedule: Q04DX003 (ip), vehicle: other) 163 % of control; (dose: 0.2 mg/kg/injection, schedule: Q01DX009 (ip), vehicle: other) 120 % of control; (dose: 0.2 mg/kg/injection, schedule: Q04DX003 (ip), vehicle: other) 150 % of control. In addition, the T/C (dose: 0.4 mg/kg/injection, schedule: Q01DX009 (ip), vehicle: other) was 95 % of control; the T/C (dose: 1.0 mg/kg/injection, schedule: Q04DX003 (ip), vehicle: saline with Tween-80) was 165 % of control; the T/C (dose: 2.0 mg/kg/injection, schedule: Q04DX003 (ip), vehicle: saline with Tween-80) was 150 % of control; the T/C (dose: 4.0 mg/kg/injection, schedule: Q04DX003 (ip), vehicle: saline with Tween-80) was 95 % of control; the T/C (dose: 29.6 micrograms/kg/injection, schedule: Q04DX003 (ip), vehicle: other) was 110 % of control; the T/C (dose: 44.0 micrograms/kg/injection, schedule: Q04DX003 (ip), vehicle: other) is 120 % of control. Moreover, the T/C (dose: 66.0 micrograms/kg/injection, schedule: Q04DX003 (ip), vehicle: other) is 153 % of control.
On to `C=C(NC(=O)C(C)NC(=O)OCc1ccccc1)C(=O)N1CCCC1C(=O)NC(C)C(=O)NC` (stereo not drawn) (Cbz-A[Dha]PA-NHMe; configuration not given here), for which the T/C under setting [10] was 111 % of control, the T/C under setting [11] is 100 % of control and the T/C under setting [12] is 96 % of control.
Regarding `OCCOCCCl`, the T/C was 96 % of control (dose: 100.0 mg/kg/injection, schedule: Q01DX009 (ip), vehicle: suspension in saline); 109 % of control (dose: 200.0 mg/kg/injection, schedule: Q01DX009 (ip), vehicle: suspension in saline); 110 % of control (dose: 400.0 mg/kg/injection, schedule: Q01DX009 (ip), vehicle: suspension in saline).
As for `O=C(O)C1C(C(=O)O)C2(Cl)C(Cl)=C(Cl)C1(Cl)C2(Cl)Cl.[Co]` (stereo not drawn), the T/C is 109 % of control (dose: 50.0 mg/kg/injection, schedule: Q01DX001 (ip), vehicle: saline); 109 % of control (dose: 100.0 mg/kg/injection, schedule: Q01DX001 (ip), vehicle: saline); 109 % of control (dose: 200.0 mg/kg/injection, schedule: Q01DX001 (ip), vehicle: saline).
`O=C1OC(c2ccccc2)=N/C1=C\c1ccc(/C=C2/N=C(c3ccccc3)OC2=O)cc1`: the T/C reads like this: (dose: 100.0 mg/kg/injection, schedule: Q04DX002 (ip), vehicle: saline with Tween-80) 100 % of control; (dose: 200.0 mg/kg/injection, schedule: Q04DX002 (ip), vehicle: saline with Tween-80) 104 % of control; (dose: 400.0 mg/kg/injection, schedule: Q04DX002 (ip), vehicle: saline with Tween-80) 95 % of control.
`CCOC(=O)CC1(O)C=C(C)C(=O)C(C)=C1`: the T/C (dose: 3.13 mg/kg/injection, schedule: Q01DX009 (ip), vehicle: distilled water + Tween-80) was 100 % of control; the T/C under setting [5] was 109 % of control; the T/C under setting [6] is 103 % of control; the T/C under setting [7] was 98 % of control; the T/C under setting [8] is 107 % of control; the T/C under setting [9] was 99 % of control. In addition, the T/C by setting is: (dose: 200.0 mg/kg/injection, schedule: Q01DX009 (ip), vehicle: distilled water + Tween-80) 112 % of control; (dose: 400.0 mg/kg/injection, schedule: Q01DX009 (ip), vehicle: distilled water + Tween-80) 108 % of control.
As for `CC(C)C[N+]1(Cc2ccc(Cl)cc2Cl)CCOCC1`, the T/C (dose: 100.0 mg/kg/injection, schedule: Q04DX003 (ip), vehicle: saline) was 101 % of control and the T/C (dose: 200.0 mg/kg/injection, schedule: Q04DX003 (ip), vehicle: saline) is 93 % of control.
Turning to `CN(C)CCCO[Si](C)(c1ccccc1)c1ccc(F)cc1` (stereo not drawn), the T/C is 105 % of control (dose: 12.5 mg/kg/injection, schedule: Q01DX009 (ip), vehicle: saline with Tween-80); 101 % of control (dose: 25.0 mg/kg/injection, schedule: Q01DX009 (ip), vehicle: saline with Tween-80); 110 % of control and 97 % of control under setting [4]; 86 % of control under setting [1].
With `CC(C)CC(NC(=O)C(N)Cc1c[nH]c2ccccc12)C(=O)O` (stereo not drawn), the T/C runs as follows: under setting [11], 96 % of control; under setting [12], 95 % of control; (dose: 200.0 mg/kg/injection, schedule: Q01DX009 (ip), vehicle: saline) 118 % of control.
Turning to `COc1cccc(C(OC(=O)c2ccccc2)c2nncc3ccccc23)c1OC` (stereo not drawn), the T/C is 100 % of control under setting [3]; 103 % of control (dose: 100.0 mg/kg/injection, schedule: Q01DX009 (ip), vehicle: Klucel (hydroxypropylcellulose) (HPC)); 100 % of control (dose: 200.0 mg/kg/injection, schedule: Q01DX009 (ip), vehicle: Klucel (hydroxypropylcellulose) (HPC)).
With `CCOC(=O)NN`, the T/C was 111 % of control (dose: 12.5 mg/kg/injection, schedule: Q01DX009 (ip), vehicle: saline) and 92 % of control under setting [10].
